Earlier results on 1 compound are cited in patent US11466400B2, “Finish composition” (Hexcel Corporation, priority 2018, dated 2022).

As a reminder, the pKa is the negative logarithm of the acid dissociation constant.

For `O=C(O)CNCC(=O)O` [Iminodiacetic acid], the pKa is given as 1.873.
